Source: publication PMC9695041, “The Anti-Breast Cancer Activity of Dihydroartemisinin-5-methylisatin Hybrids Tethered via Different Carbon Spacers” (Molecules, 2022)

Experiments:
[1] = tested on: MCF-7 breast cancer cell line; experiment: MTT antiproliferative assay, MCF-7; format: cell-based
Method: (§1) The antiproliferative activity and cytotoxicity of DHA-5-methylisatin hybrids 6a–c and 7a–m against MCF-7, MDA-MB-231, MCF-7/ADR, and MDA-MB-231/ADR (Purchased from Procell) breast cancer cell lines as well as MCF-10A were assessed by 3-(4,5-dimethylthiazol-2-yl)-2,5-diphenyltetrazolium bromide (MTT) assay.
(§2) MCF-7, MDA-MB-231, MCF-7/ADR, and MDA-MB-231/ADR breast cancer cell lines (2 × 10^3) were plated in each well of a 96-well plate and were allowed to adhere and spread for 24 h. The dihydroartemisinin-5-methylisatin hybrids 6a–e and 7a–m were added to a final concentration of 100 µM, and the cells were cultured for 24 h at 37 °C. 3-(4,5-dimethyl-2-thiazolyl)-2,5-diphenyltetrazolium bromide (MTT) solution (10 µL) was added to each well, and the cultures were incubated for an additional 4 h. A further 100 µL of MTT solution was added and incubation continued overnight. The absorbance at 540 nm was determined in each well with a 96-well plate reader. The growth of the treated cells was compared with that of untreated cells.

[2] = tested on: MDA-MB-231/ADR breast cancer cell line; experiment: MTT antiproliferative assay, MDA-MB-231/ADR; format: cell-based; conditions: Homo sapiens, MDA-MB-231/ADR (drug-resistant)
Method: as §1, §2

[3] = MTT cytotoxicity assay, MCF-10A; conditions: human, MCF-10A normal breast cells
Method: as §1, §2

[4] = tested on: MDA-MB-231 breast cancer cell line; experiment: MTT antiproliferative assay, MDA-MB-231; format: cell-based
Method: as §1, §2

[5] = tested on: MCF-7, MDA-MB-231, MCF-7/ADR, and MDA-MB-231/ADR breast cancer cell lines; experiment: MTT antiproliferative assay, summary over the breast cancer cell line panel; format: cell-based; conditions: range over the four breast cancer cell lines; read-out: IC50 range across MCF-7, MDA-MB-231, MCF-7/ADR and MDA-MB-231/ADR
Method: as §1, §2

[6] = tested on: MCF-7/ADR breast cancer cell line; experiment: MTT antiproliferative assay, MCF-7/ADR; format: cell-based; conditions: Homo sapiens, NCI/ADR-RES, MCF-7/ADR (drug-resistant)
Method: as §1, §2

For `Cc1ccc2c(c1)C(=NO)C(=O)N2CCOC1O[C@@H]2O[C@@]3(C)CC[C@H]4[C@H](C)CC[C@@H]([C@H]1C)[C@@]24OO3` (stereo partly drawn) [Hybrid 7a, 3-(Hydroxyimino)-5-methyl-1-(2-(((3R,5aS,6R,8aS,9R,12R,12aR)-3,6,9-trimethyldecahydro-12H-3,12-epoxy[1,2]dioxepino[4,3-i]isochromen-10-yl)oxy)ethyl)indolin-2-one], which IC50 ([1]; Homo sapiens, MCF7, MCF-7, MTT assay) is on record?
Its IC50 is 19.4 µM.

And the “SI1: selectivity index IC50(MCF-10A)/IC50(MCF-7)” value ([1]; IC50(MCF-10A)/IC50(MCF-7))?
Its value is >5.15.

And the IC50 [2]?
Its IC50 is 18.8 µM.

And the IC50 at 24 h [3]?
Its IC50 at 24 h is > 100 µM.

And the IC50 ([4]; Homo sapiens, MDA-MB-231, MTT assay)?
The IC50 was 15.3 µM.

And the “SI2: selectivity index IC50(MCF-10A)/IC50(MDA-MB-231)” value ([4]; IC50(MCF-10A)/IC50(MDA-MB-231))?
Its value is >6.53.

And the IC50 [5]?
Its IC50 is 15.3 to 20.1 µM.

What about the IC50 [6] of the same molecule?
The IC50 was 20.1 µM.
